The subject of assay [1] is Pseudomonas aeruginosa (ATCC 27853). Nature of the assay: microbe, parasite or virus in culture. Type of assay: cell-based. As to conditions: P. aeruginosa. The method, then:
(§1) The gram-positive bacterial strains are: Enterococcus faecalis (ATCC 29212), and Staphylococcus aureus (ATCC 25923) and the gram-negative strains are: Escherichia coli (ATCC 25922), Pseudomonas aeruginosa (ATCC 27853) and Salmonella typhimurim (clinical isolate), Salmonella typhiTy2 (WHO). The bacteria are cultured with shaking all night at 37° C., then recultured at a dilution of 1:50 in some fresh Luria-Bertani (LB) medium for 2 hours. The bacterial concentration is adjusted to […], and 50 μl is distributed in 96-well plates with an equal volume of peptides diluted half and half (256-0.5 μg/ml) in LB medium. […] To determine the minimum bactericide concentration, 10 μl from each well is spread on gelose plates in LB medium.
(§2) The results are expressed as the peptide concentration in MBC (μM).

For assay [2], the system named is Staphylococcus aureus (ATCC 25923). Nature of the assay: microbe, parasite or virus in culture. As to conditions: S. aureus. Type of assay: cell-based. As to the method:
as §1, §2

For assay [3], the system named is Enterococcus faecalis (ATCC 29212). As to the kind of experiment: microbe, parasite or virus in culture. It counts as cell-based. As to conditions: E. faecalis. As to the method:
as §1, §2

Assay [4] has as its system Escherichia coli (ATCC 25922). As to the kind of experiment: microbe, parasite or virus in culture. Type of assay: cell-based. As to conditions: E. coli, read-out: MBC. As to the method: as §1, §2
The test system of assay [5] is Salmonella typhimurim (clinical isolate). Nature of the assay: Antibacterial activity of cationic peptides (MBC). It counts as cell-based. As to conditions: S. typhimurium. The method, then: as §1, §2
In assay [6] the test system is Salmonella typhiTy2 (WHO). Nature of the assay: microbe, parasite or virus in culture. It counts as cell-based, S. typhi-Ty2. The method, then: as §1, §2
The next assay concerns 3T3 cells. Nature of the assay: In vitro transfection with luciferase plasmid using peptides. It counts as cell-based, mouse. As to conditions: for RLU value relative to peptide SEQ ID NO: 41: 3T3 cells; for luciferase expression RLU: peptide and plasmid pCMVLUC complexed at 1.6 nmoles/μg. As to the method:
Technique: The plasmid pCMVLUC (carrying the gene for luciferase) provided by Qiagen is used according to their instructions. 3T3 cells are sown the night before in 24-well plates (8×10^4 cells/well) in the complete culture medium.
The peptides and the plasmid are complexed in a ratio of 1.6 nmoles/μg in 50 μl of NaCl 0.15M for 20 minutes at laboratory temperature. The cells are then washed, and the peptide-plasmid complex added to the cells in 0.5 ml of complete medium. After 5 hours of incubation at 37° C., the reaction medium is eliminated, and 1 ml of complete medium is added to the cells. After 24 hours of culture, the cells are then washed 3 times with PBS and lysed with 100 μl of lysis buffer (Promega) containing 1% Triton X-100 and 2 mM DTT for 15 minutes. The luciferase test is done on the cell lysate after centrifugation. The quantity of protein in the lysate is measured using the Bradford Test (Bio-Rad) and calculated according to a curve established with bovine gamma globulins. The luciferase activity is estimated on 15 μl of lysate plus 100 μl of reagent of luciferase containing luciferin (Promega). The relative luciferase units (RLU) are measured in a luminometer (Berthold Systems) and reported in mg of protein.

Assay [7] in a line: ELISA fixation of biotinylated peptides on sensitized plates. As to conditions: read-out: avidity (Kd), quantity of peptides necessary to obtain 50% fixation, Chondroitin B; Table 5. It counts as binding. Background: An ELISA detects its analyte on a solid surface through an enzyme-linked reagent.
Experiment in assay [8]: as above
Type of assay: binding. As to conditions: read-out: avidity (Kd), quantity of peptides necessary to obtain 50% fixation, Chondroitin A; Table 5.

The test system of another assay is HeLa. Nature of the assay: Internalization of covalent peptide-peroxidase conjugates. It counts as cell-based, human. As to conditions: Table 9, 0.2 μg/ml conjugate, 2 hours. As to the method: (§3) To evaluate more directly the penetration of the peptides, avoiding the avidin-peroxidase bias, some of the peptides in sequences SEQ ID NO: 25 to 48 were conjugated covalently with cysteine in the C-terminal position of the peptide to peroxidase. The peptides were coupled with peroxidase in the following way:
(§4) One mg of peroxidase activated with maleimide (Sigma) in 100 μl of sodium phosphate buffer, NaCl 0.15 M, EDTA 5 mM, had 1 mg of peptide added to it. After 2 hours at laboratory temperature, β-mercaptoethanol is added to a final concentration of 1.5 mM for 15 minutes. The uncoupled peptide is eliminated by centrifugation on ultrafiltration membranes (cut-off threshold=30,000 Daltons, Sartorius), followed by three washings in sodium phosphate buffer 0.1 M, pH 7.4 containing 0.15 M NaCl.
(§5) It appears that the higher the concentration of peptide-peroxidase conjugate in the culture medium, the more the quantity internalized increases. To compare the penetration of the conjugates by cell type, the cells from different lines were incubated with 0.2 μg/ml of peptide-peroxidase conjugate for 2 hours, and the quantity of peroxidase dosed in the lysates. Table 9 and Table 9B below give the results expressed in pg/10^3 cells. The quantity of each peptide internalized in the different lines generally varies only from single to double.

Assay [9] can be described thus: ELISA fixation of biotinylated peptides on sensitized plates. Type of assay: binding. As to conditions: read-out: avidity (Kd), quantity of peptides necessary to obtain 50% fixation, Heparin, Table 5. As to the method: The capacity of peptides SEQ ID NO: 1 to 21 to attach themselves to DNA and heparin is evaluated on ELISA plates sensitized with DNA or heparin. Dilutions of biotinylated peptides are deposited on the plates and their fixation is shown using streptavidin conjugated with peroxidase. […] The avidity of each of the peptides for DNA or heparin is evaluated by the quantity (×10^−6 M) of peptides necessary to obtain 50% fixation.

In the next assay the test system is H1299 cells. As to the kind of experiment: Internalization of covalent peptide-peroxidase conjugates. Type of assay: cell-based, human. As to conditions: for Internalization of Peptide-peroxidase: Table 9, H1299, 0.2 μg/ml conjugate; for Internalization of Peptide-peroxidase / quantity of peptide internalized: 2 hours. As to the method:
as §3, §4
The H1299 cells are incubated for 2 hours with the conjugates at increasing concentrations of peptide-peroxidase in the culture medium, then washed with PBS. The cells are lysed and the quantity of peptide internalized is evaluated by the dosage of peroxidase in the lysate of the cells with reference to a curve established with peptide-peroxidase.
The quantity of peptide internalized (pg/10^3 cells), depending on the concentrations of conjugates in the culture medium, is shown in Table 8 below.
as §5

The subject of the next assay is 3T3. Described as above. It counts as cell-based, mouse. As to conditions: Table 9, 0.2 μg/ml conjugate, 2 hours. The method, then: as §3, §4, §5
Assay [10] in a line: ELISA fixation of biotinylated peptides on sensitized plates. Type of assay: binding. As to conditions: read-out: avidity (Kd), quantity of peptides necessary to obtain 50% fixation, Chondroitin C; Table 5.
In another assay the test system is cells. As to the kind of experiment: Penetration of biotinylated peptides inside cells (microscopy, S-PO coloration). It counts as cell-based. As to conditions: biotinylated peptides 50 to 6 μg/ml, 1-18 hours, revealed with S-PO. The method, then:
The cells are cultivated in the presence of the different peptides carrying, on the N-terminal side, biotin in decreasing concentrations (50 to 6 μg/ml) in the culture medium for variable times (1-18 hours).
At the end of the culture, the cells are washed three times with PBS (0.15 M NaCl buffered with 0.01 M potassium phosphate buffer pH 7.4) then fixed 15 minutes in ethanol at −20° C. The penetration of the peptide is evaluated after incubation for 30 minutes with streptavidin conjugated with peroxidase (abbreviated S-PO for streptavidin-peroxidase). Then, the S-PO is eliminated, and the cells are washed. […] With the other peptides, positive colorations, but of variable intensity, were noted.

Consider ten compounds from US8003595B2, “Amino acid sequences facilitating penetration of a substance of interest into cells and/or cell nuclei” (Cellectis, priority 2000, dated 2011).

Values after ≈ are worked out from the molar mass of the structure shown. Where two headings read alike, the source gives them in different places. Where no end group is shown, it is not given here.

Consider “KLAKLAKKLAKLAKGKRKKKGKLGKKRDP [SEQ ID NO: 44]”, for which the MBC is >110 µM in assay [1]; >110 µM in assay [2]; >110 µM in [3]; 1.7 µM in [4]; 1.27 µM in assay [5]; 0.64 µM in assay [6] (Ty2 (WHO)).

Consider “KLAKLAKKLAKLAKKHLKKHLKKHLK [SEQ ID NO: 45]”, for which the MBC is 0.5 µM in assay [1]; >680 µM in assay [2]; >680 µM in [3]; 1 µM in [4]; 1 µM in [5]; 0.66 µM in assay [6] (Ty2 (WHO)).

As for “SEQ ID NO: 42: SEQ ID NO: 39 (HBP10) plus 13 N-terminal lysines (KKKKKKKKKKKKKSRRARRSPRHLGSG; listed as Homo sapiens)”, in the assay with 3T3 cells, the “RLU value relative to peptide SEQ ID NO: 41” value came out at 5.5 times and the “luciferase expression RLU” value is 5 × 10^6/mg of protein.

In the case of `CC(C)C[C@H](NC(=O)[C@H](CCCCN)NC(=O)[C@H](C)NC(=O)[C@H](CC(C)C)NC(=O)[C@H](CCCCN)NC(=O)[C@H](CCCCN)NC(=O)[C@H](C)NC(=O)[C@H](CC(C)C)NC(=O)[C@H](CCCCN)NC(=O)[C@H](C)NC(=O)[C@H](CC(C)C)NC(=O)[C@@H](N)CCCCN)C(=O)N[C@@H](C)C(=O)N[C@@H](CCCCN)C(=O)O` [SEQ ID NO: 24, reference compound], the MBC in assay [1] was 27.5 µM (≈ 41.9 µg/mL); in [2], >110 µM; in assay [3] it was >110 µM; in assay [4] it was 55 µM (≈ 83.8 µg/mL); in assay [5], 110 µM (≈ 168 µg/mL); in [6] (S. typhi-Ty2), 27.5 µM (≈ 41.9 µg/mL).

Regarding “SEQ ID NO: 40: SEQ ID NO: 10 (1047) plus 13 N-terminal lysines (KKKKKKKKKKKKKVKRGLKLRHVRPRVTRMDV; listed as Homo sapiens)”, in the assay with 3T3 cells, the “RLU value relative to peptide SEQ ID NO: 41” value is on record as 2.6 times and the “luciferase expression RLU” value is 1.9 × 10^6/mg of protein.

Regarding YRSRKYSSWYYALKR [SEQ ID NO: 34], the Kd was determined as 47 nM in assay [7], 47 nM in assay [8], 45 nM in [9] and 25 nM in assay [10]. Further, the “Internalization of Peptide-peroxidase” value with HeLa turned out to be 3.4 pg/10^3 cells; in the assay on H1299 cells, 3.8 pg/10^3 cells; with 3T3, 9 pg/10^3 cells. The “percentage of quantity of peroxidase internalized compared to quantity deposited” value with H1299 cells (0.01 μg/ml) is recorded as “(0.01) %”; in the assay with H1299 cells (0.1 μg/ml), “(1.4) %”; in the assay with H1299 cells (0.5 μg/ml), “(8.14) %”; in the assay on H1299 cells (1 μg/ml), “(10.9) %”. The “quantity of peptide internalized” value in the assay on H1299 cells (peptide-peroxidase 0.01 μg/ml) was found to be 0.002 pg/10^3 cells; with H1299 cells (peptide-peroxidase 0.1 μg/ml), 1.4 pg/10^3 cells; in the assay with H1299 cells (peptide-peroxidase 0.5 μg/ml) it was 40.7 pg/10^3 cells; in the assay with H1299 cells (peptide-peroxidase 1 μg/ml) it was 109 pg/10^3 cells.

For “VKRGLKLRHVRPRVTRMDV (listed as Homo sapiens) [SEQ ID NO: 10]”, the intracellular cytochemical coloration entry with cells is listed as “intense coloration”. Further, the “Internalization of Peptide-peroxidase” value with HeLa is on record as 4.7 pg/10^3 cells; in the assay with H1299 cells, 10 pg/10^3 cells; with 3T3 it was 35 pg/10^3 cells.

On to “SEQ ID NO: 41: SEQ ID NO: 28 (HBP3)2) plus 13 N-terminal lysines (KKKKKKKKKKKKKSERKKRRRESRKKRRRES; listed as Homo sapiens)”, for which the “luciferase expression RLU” value with 3T3 cells is reported as 0.9 × 10^6/mg of protein.

In the case of GLKKNGSCKRGPR [SEQ ID NO: 33], the Kd in assay [7] was found to be 260 nM; in assay [8] it was 225 nM; in assay [9] (listed as HBP8), 168 nM; in assay [10], 110 nM. The “Internalization of Peptide-peroxidase” value with HeLa came out at 2.1 pg/10^3 cells; with H1299 cells it was 3.6 pg/10^3 cells; in the assay on 3T3, 7.6 pg/10^3 cells.

For `CC1(C)S[C@@H]2[C@H](NC(=O)[C@H](N)c3ccccc3)C(=O)N2[C@H]1C(=O)O` [Ampicillin, reference compound], the MBC is > 696 µM in assay [1] (Pseudomonas aeruginosa, ATCC27853); < 0.68 µM in [2] (Staphylococcus aureus, ATCC25923); 2.75 µM (≈ 0.961 µg/mL) in assay [3] (Enterococcus faecalis, ATCC29212); 22 µM (≈ 7.69 µg/mL) in [4] (Escherichia coli, ATCC25922); 11 µM (≈ 3.84 µg/mL) in assay [5]; 5.5 µM (≈ 1.92 µg/mL) in assay [6] (Salmonella, TYPHI).
